In DBAASP:
Converted amounts (≈) assume the structure as drawn. “And” between values parts separate entries of the source, which are not always exact repeats. Equal values may be shown once.

Experiments:
Assay in all cases: ≥ marks a high value that may be exact or a test limit, other limits are often not marked, values filed in µg/mL are converted to µM
[1] = system: Candida albicans ATCC 10231
[2] = system: Enterococcus faecalis PCM 2673
[3] = system: Escherichia coli ATCC 25922
[4] = system: Pseudomonas aeruginosa ATCC 9027
[5] = system: Staphylococcus aureus ATCC 25923
[6] = system: Staphylococcus aureus ATCC BAA-1556
[7] = system: Bacillus subtilis ATCC 6633
[8] = system: Klebsiella pneumoniae ATCC 27736
[9] = system: Pseudomonas aeruginosa ATCC BAA-427
[10] = system: Candida albicans ATCC 14053
[11] = system: Escherichia coli ATCC 11775
[12] = system: Micrococcus luteus ATCC 49732
[13] = system: Staphylococcus aureus ATCC 12600
Bacillus subtilis 168 HT = system: Bacillus subtilis 168 HT
Escherichia coli MG1655 = system: Escherichia coli MG1655
[14] = system: Escherichia coli K12 MG1655
Bacillus subtilis = system: Bacillus subtilis
[15] = system: Enterococcus faecalis ATCC 29212
Escherichia coli = system: Escherichia coli
[16] = system: Klebsiella pneumoniae ATCC 13883
[17] = system: Pseudomonas aeruginosa ATCC 27853
[18] = system: Salmonella enterica subsp. enterica serovar Typhimurium ATCC 14028
[19] = system: Streptococcus pyogenes ATCC 19615
[20] = system: Escherichia coli BL21(DE3)

CC[C@H](C)[C@H](NC(=O)[C@H](CCCCN)NC(=O)[C@H](CCCCN)NC(=O)[C@@H](NC(=O)[C@@H](NC(=O)[C@H](CC(=O)O)NC(=O)[C@H](Cc1ccccc1)NC(=O)[C@H](CC(C)C)NC(=O)CN)[C@@H](C)CC)[C@@H](C)CC)C(=O)N[C@@H](C)C(=O)N[C@@H](CCC(=O)O)C(=O)N[C@@H](CO)C(=O)N[C@@H](C)C(N)=O [GLFDIIKKIAESA]
MIC [1]: 365 µM (≈ 512 µg/mL)
MIC [2]: ≥ 91.1 µM
MIC [3]: 91.1 µM (≈ 128 µg/mL)
MIC [4]: > 365 µM
MIC [5]: > 365 µM

CC[C@H](C)[C@H](NC(=O)[C@H](Cc1c[nH]c2ccccc12)NC(=O)[C@H](CCCN=C(N)N)NC(=O)[C@H](CCCN=C(N)N)NC(=O)[C@H](Cc1c[nH]c2ccccc12)NC(=O)[C@@H](N)CCCCN)C(=O)N[C@@H](CCCN=C(N)N)C(=O)N[C@@H](C)C(=O)N[C@@H](CC(C)C)C(N)=O [KWRRWIRAL]
MIC [6]: 25 µM (≈ 32.1 µg/mL)

CC[C@H](C)[C@H](NC(=O)CNC(=O)[C@H](CCCN=C(N)N)NC(=O)[C@H](Cc1ccccc1)NC(=O)[C@H](C)NC(=O)[C@H](Cc1cnc[nH]1)NC(=O)[C@H](Cc1cnc[nH]1)NC(=O)[C@H](Cc1ccccc1)NC(=O)[C@@H](N)Cc1ccccc1)C(=O)N[C@H](C(=O)N[C@@H](Cc1cnc[nH]1)C(=O)N[C@H](C(=O)NCC(=O)N[C@@H](CCCCN)C(=O)N[C@H](C(=O)N[C@H](C(=O)N[C@@H](Cc1cnc[nH]1)C(=O)N[C@@H](CCCN=C(N)N)C(=O)N[C@@H](CC(C)C)C(=O)N[C@H](C(=O)N[C@H](C(=O)NCC(N)=O)[C@@H](C)O)C(C)C)[C@@H](C)CC)[C@@H](C)O)C(C)C)C(C)C [FFHHAFRGIVHVGKTIHRLVTG]
MIC [7]: 16 µM (≈ 40.5 µg/mL)
MIC [8]: 12 µM (≈ 30.3 µg/mL)
MIC [9]: 20 µM (≈ 50.6 µg/mL)

CC(C)[C@H](NC(=O)[C@H](C)NC(=O)[C@@H](NC(=O)CNC(=O)[C@@H]1CCCN1)[C@@H](C)O)C(=O)N[C@@H](C)C(=O)N[C@@H](CCCCN)C(=O)O [PGTAVAK]
MIC [10]: ≥ 97 µM
MIC [11]: ≥ 97 µM
MIC [12]: ≥ 97 µM
MIC [13]: ≥ 97 µM

CC[C@H](C)[C@H](NC(=O)[C@H](CCCN=C(N)N)NC(=O)[C@H](CCSC)NC(=O)[C@@H](NC(=O)[C@H](CCCN=C(N)N)NC(=O)[C@@H](N)Cc1ccccc1)[C@@H](C)CC)C(=O)N[C@@H](CC(C)C)C(=O)N[C@@H](CCCN=C(N)N)C(=O)N[C@H](C(=O)N[C@@H](CC(C)C)C(=O)N[C@@H](CCCCN)C(=O)N[C@@H](CC(C)C)C(=O)O)C(C)C [FRIMRILRVLKL]
MIC (Bacillus subtilis 168 HT): 10.3 µM (≈ 16 µg/mL)
MIC (Escherichia coli MG1655): 10.3 µM (≈ 16 µg/mL)

CC[C@H](C)[C@H](NC(=O)[C@H](Cc1c[nH]c2ccccc12)NC(=O)[C@H](CCCN=C(N)N)NC(=O)[C@H](CCCN=C(N)N)NC(=O)[C@H](Cc1c[nH]c2ccccc12)NC(=O)[C@@H](N)CC(C)C)C(=O)N[C@@H](CCCN=C(N)N)C(=O)N[C@@H](Cc1c[nH]c2ccccc12)C(=O)N[C@@H](CC(C)C)C(N)=O [LWRRWIRWL]
MIC [6]: 12.5 µM (≈ 17.3 µg/mL)

CC[C@H](C)[C@H](NC(=O)[C@H](CCC(N)=O)NC(=O)[C@@H](NC(=O)[C@@H](N)CC(C)C)C(C)C)C(=O)NCC(=O)N[C@H](C(=O)N[C@@H](CCCCN)C(=O)N[C@H](C(=O)N[C@H](C(=O)NCC(=O)N[C@H](C(=O)NCC(=O)N[C@@H](CCCN=C(N)N)C(=O)N[C@@H](CC(N)=O)C(=O)N[C@@H](Cc1ccc(O)cc1)C(=O)N[C@@H](C)C(=O)N[C@@H](C)C(=O)N[C@@H](Cc1cnc[nH]1)C(=O)O)C(C)C)C(C)C)[C@@H](C)CC)[C@@H](C)O [LVQIGTKIVGVGRNYAAH]
MIC (Bacillus subtilis 168 HT): ≥ 33.8 µM
MIC [14]: ≥ 33.8 µM

CC[C@H](C)[C@H](NC(=O)[C@H](CCCCN)NC(=O)[C@H](CCCCN)NC(=O)[C@H](C)NC(=O)[C@@H](NC(=O)[C@H](CC(=O)O)NC(=O)[C@H](Cc1ccccc1)NC(=O)[C@H](CC(C)C)NC(=O)CN)[C@@H](C)CC)C(=O)N[C@@H](C)C(=O)N[C@@H](CCC(=O)O)C(=O)N[C@@H](CO)C(=O)N[C@@H](Cc1ccccc1)C(N)=O [GLFDIAKKIAESF]
MIC [1]: 178 µM (≈ 256 µg/mL)
MIC [2]: ≥ 178 µM
MIC [3]: 356 µM (≈ 512 µg/mL)
MIC [4]: > 356 µM
MIC [5]: > 356 µM

CC(C)C[C@H](NC(=O)[C@H](CCCN=C(N)N)NC(=O)CNC(=O)CNC(=O)[C@@H](N)CCCN=C(N)N)C(=O)N[C@@H](Cc1ccc(O)cc1)C(=O)N[C@@H](CCCN=C(N)N)C(=O)N[C@@H](CCCN=C(N)N)C(=O)N[C@@H](CCCN=C(N)N)C(=O)N[C@@H](Cc1ccccc1)C(=O)N[C@H](C(=O)N[C@H](C(=O)NCC(=O)N[C@@H](CCCN=C(N)N)C(N)=O)C(C)C)C(C)C [RGGRLYRRRFVVGR]
MIC (Bacillus subtilis): 8 µM (≈ 14 µg/mL)
MIC [15]: 4 µM (≈ 6.99 µg/mL)
MIC (Escherichia coli): 4 µM (≈ 6.99 µg/mL)
MIC [16]: 8 µM (≈ 14 µg/mL)
MIC [17]: 8 µM (≈ 14 µg/mL)
MIC [18]: 8 µM (≈ 14 µg/mL)
MIC [5]: 2 µM (≈ 3.49 µg/mL)
MIC [19]: 8 µM (≈ 14 µg/mL)

CC[C@H](C)[C@H](NC(=O)[C@H](Cc1c[nH]c2ccccc12)NC(=O)[C@H](CCCN=C(N)N)NC(=O)[C@H](CCCN=C(N)N)NC(=O)[C@H](Cc1c[nH]c2ccccc12)NC(=O)[C@@H](N)CCCCN)C(=O)N[C@@H](CC(C)C)C(=O)N[C@@H](Cc1c[nH]c2ccccc12)C(=O)N[C@@H](CC(C)C)C(N)=O [KWRRWILWL]
MIC [6]: 12.5 µM (≈ 16.9 µg/mL)

CC[C@H](C)[C@H](NC(=O)[C@H](CCCCN)NC(=O)[C@@H](N)Cc1c[nH]c2ccccc12)C(=O)N[C@@H](Cc1ccccc1)C(=O)N[C@@H](CCCCN)C(=O)N[C@@H](CC(C)C)C(=O)N[C@@H](CCCCN)C(=O)N[C@@H](CC(C)C)C(=O)N[C@@H](CCCN=C(N)N)C(=O)N[C@@H](CCSC)C(=O)N[C@@H](CC(C)C)C(=O)N[C@@H](Cc1c[nH]c2ccccc12)C(=O)O [WKIFKLKLRMLW]
MIC (Bacillus subtilis 168 HT): ≥ 38.5 µM
MIC (Escherichia coli MG1655): ≥ 77 µM

CC[C@H](C)[C@H](NC(=O)[C@H](Cc1cnc[nH]1)NC(=O)[C@H](Cc1cnc[nH]1)NC(=O)[C@H](Cc1ccccc1)NC(=O)[C@@H](N)Cc1ccccc1)C(=O)N[C@@H](Cc1ccccc1)C(=O)N[C@@H](CCCN=C(N)N)C(=O)NCC(=O)N[C@H](C(=O)N[C@H](C(=O)N[C@@H](Cc1cnc[nH]1)C(=O)N[C@H](C(=O)NCC(=O)N[C@@H](CCCCN)C(=O)N[C@H](C(=O)N[C@H](C(=O)N[C@@H](Cc1cnc[nH]1)C(=O)N[C@@H](CCCN=C(N)N)C(=O)N[C@@H](CC(C)C)C(=O)N[C@H](C(=O)N[C@H](C(=O)NCC(N)=O)[C@@H](C)O)C(C)C)[C@@H](C)CC)[C@@H](C)O)C(C)C)C(C)C)C(C)C [FFHHIFRGVVHVGKTIHRLVTG]
MIC [7]: 8 µM (≈ 20.5 µg/mL)
MIC [8]: 6 µM (≈ 15.3 µg/mL)
MIC [9]: 12 µM (≈ 30.7 µg/mL)

CC[C@H](C)[C@H](NC(=O)[C@H](C)NC(=O)[C@H](C)NC(=O)[C@H](CCC(=O)O)NC(=O)[C@H](CCCCN)NC(=O)CNC(=O)[C@@H](NC(=O)[C@H](CC(N)=O)NC(=O)[C@H](CCCCN)NC(=O)[C@@H](NC(=O)[C@@H](NC(=O)[C@H](CO)NC(=O)[C@H](Cc1c[nH]c2ccccc12)NC(=O)[C@H](CC(C)C)NC(=O)CN)[C@@H](C)O)[C@@H](C)CC)C(C)C)C(=O)N[C@@H](C)C(=O)N[C@@H](C)C(=O)NCC(=O)N[C@@H](CCCCN)C(=O)N[C@@H](C)C(=O)N[C@H](C(=O)N[C@@H](CC(C)C)C(=O)NCC(=O)N[C@@H](CO)C(=O)N[C@@H](CC(C)C)C(N)=O)C(C)C [GLWSTIKNVGKEAAIAAGKAVLGSL]
MIC [11]: 0.5 µM (≈ 1.23 µg/mL)
MIC [12]: 2 µM (≈ 4.91 µg/mL)
MIC [13]: 0.5 µM (≈ 1.23 µg/mL)

CC[C@H](C)[C@H](NC(=O)[C@H](CC(C)C)NC(=O)[C@H](Cc1c[nH]c2ccccc12)NC(=O)[C@@H](NC(=O)[C@H](CC(C)C)NC(=O)[C@H](CCCN=C(N)N)NC(=O)[C@@H](N)CCCN=C(N)N)[C@@H](C)CC)C(=O)N[C@@H](CC(C)C)C(=O)N[C@@H](CCCN=C(N)N)C(=O)N[C@@H](CC(C)C)C(=O)N[C@@H](CC(C)C)C(=O)N[C@@H](CCCN=C(N)N)C(N)=O [RRLIWLILRLLR]
MIC (Bacillus subtilis): 10 µM and 4 µM and 8 µM
MIC [15]: 4 µM and 8 µM
MIC [20]: 8 µM (≈ 13 µg/mL)
MIC [16]: 4 µM and 8 µM
MIC [17]: 8 µM and > 4 µM and 10 µM
MIC [18]: 8 µM and > 4 µM and 10 µM
MIC [19]: 4 µM and 8 µM
